Measurements taken from ChEMBL document CHEMBL1201862, “PubChem BioAssay data set” (2004).
Several values for one entry are separate records, joined by “and”; a condition that tells them apart may be missing. Equal entries are not always repeated.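 Briefly, cells in 96-well plates were exposed to five compound concentrations for 48 h, and endpoints were estimated by linear interpolation. GI50 marks 50% less growth.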 Activity calls are given as the source filed them. No stated cut-off is given here; in the data, active = GI50 up to about 1.1 µM and inactive = higher.

How the values were obtained:
Test in all cases: NCI anticancer screen, dose series, 48 h
[1] = system: NCI-H23
[2] = system: OVCAR-8
[3] = system: UACC-257
[4] = system: SN12C
[5] = system: HOP-62
[6] = system: HCT-116
[7] = system: LOX IMVI
[8] = system: CCRF-CEM
[9] = system: MCF7
[10] = system: UO-31
[11] = system: RXF 393
[12] = system: RPMI-8226
[13] = system: T47D
[14] = system: ACHN
[15] = system: OVCAR-5
[16] = system: COLO 205
[17] = system: SK-OV-3
[18] = system: NCI-H522
[19] = system: SK-MEL-28
[20] = system: CAKI-1
[21] = system: U-251
[22] = system: A498
[23] = system: SNB-19
[24] = system: A549
[25] = system: HT-29
[26] = system: DU-145
[27] = system: SR
[28] = system: Malme-3M
[29] = system: MDA-MB-231
[30] = system: UACC-62
[31] = system: SF-539
[32] = system: MOLT-4
[33] = system: SNB-75
[34] = system: HL-60
[35] = system: HCC 2998
[36] = system: Hs-578T
[37] = system: KM12
[38] = system: SW-620
[39] = system: SF-295
[40] = system: SF-268
[41] = system: NCI-H226
[42] = system: OVCAR-3
[43] = system: EKVX
[44] = system: NCI-H460
[45] = system: TK-10
[46] = system: MDA-MB-435
[47] = system: M14
[48] = system: PC-3
[49] = system: 786-0
[50] = system: BT-549
[51] = system: HCT-15
[52] = system: K562
[53] = system: OVCAR-4
[54] = system: HOP-92
[55] = system: MDA-N
[56] = system: SK-MEL-5
[57] = system: IGROV-1
[58] = system: SK-MEL-2
[59] = system: NCI/ADR-RES

SMILES: COc1cc(C=O)cc(/C=N/n2c3ccccc3c3ccccc32)c1O
- GI50 [1]: 39.6 µM (inactive)
- GI50 [2]: 8.09 µM (inactive)
- GI50 [3]: 26.8 µM (inactive)
- GI50 [4]: 5.46 µM (inactive)
- GI50 [5]: 30.3 µM (inactive)
- GI50 [6]: 10.9 µM (inactive)
- GI50 [7]: 14.2 µM (inactive)
- GI50 [8]: 4.09 µM (inactive)
- GI50 [9]: 3.78 µM (inactive)
- GI50 [10]: 8.18 µM (inactive)
- GI50 [11]: 25 µM (inactive)
- GI50 [12]: 5.01 µM (inactive)
- GI50 [13]: > 100 µM (inactive)
- GI50 [14]: 6.12 µM (inactive)
- GI50 [15]: 45.1 µM (inactive)
- GI50 [16]: 18.8 µM (inactive)
- GI50 [17]: 6.76 µM (inactive)
- GI50 [18]: 33.6 µM (inactive)
- GI50 [19]: 5.83 µM (inactive)
- GI50 [20]: 31.8 µM (inactive)
- GI50 [21]: 9.04 µM (inactive)
- GI50 [22]: 20.7 µM (inactive)
- GI50 [23]: 21.3 µM (inactive)
- GI50 [24]: > 100 µM (inactive)
- GI50 [25]: 35.7 µM (inactive)
- GI50 [26]: > 100 µM (inactive)
- GI50 [27]: 4.72 µM (inactive)
- GI50 [28]: 3.52 µM (inactive)
- GI50 [29]: 17.4 µM (inactive)
- GI50 [30]: 6.67 µM (inactive)
- GI50 [31]: 4.32 µM (inactive)
- GI50 [32]: 16.9 µM (inactive)
- GI50 [33]: 2.79 µM (inactive)
- GI50 [34]: 5.81 µM (inactive)
- GI50 [35]: 19.3 µM (inactive)
- GI50 [36]: 6.81 µM (inactive)
- GI50 [37]: 35.8 µM (inactive)
- GI50 [38]: 9.73 µM (inactive)
- GI50 [39]: 3.17 µM (inactive)
- GI50 [40]: 4.34 µM (inactive)
- GI50 [41]: 6.3 µM (inactive)
- GI50 [42]: 45.2 µM (inactive)
- GI50 [43]: 43.1 µM (inactive)
- GI50 [44]: 30.5 µM (inactive)
- GI50 [45]: 36.9 µM (inactive)
- GI50 [46]: 4.05 µM (inactive)
- GI50 [47]: 4.6 µM (inactive)
- GI50 [48]: 5.41 µM (inactive)
- GI50 [49]: 11.9 µM (inactive)
- GI50 [50]: 2.94 µM (inactive)
- GI50 [51]: 14.5 µM
- GI50 [52]: 12 µM (inactive)
- GI50 [53]: 74 µM (inactive)
- GI50 [54]: 2.91 µM (inactive)

SMILES: CCCCOc1c(C(=O)O)cc(Br)cc1C(=O)O
- GI50 [1]: > 100 µM (inactive)
- GI50 [2]: > 100 µM (inactive)
- GI50 [55]: > 100 µM (inactive)
- GI50 [3]: > 100 µM (inactive)
- GI50 [4]: > 100 µM (inactive)
- GI50 [5]: > 100 µM (inactive)
- GI50 [6]: 91.6 µM (inactive)
- GI50 [7]: > 100 µM (inactive)
- GI50 [9]: > 100 µM (inactive)
- GI50 [10]: > 100 µM (inactive)
- GI50 [11]: > 100 µM (inactive)
- GI50 [12]: > 100 µM (inactive)
- GI50 [13]: > 100 µM (inactive)
- GI50 [14]: > 100 µM (inactive)
- GI50 [56]: > 100 µM (inactive)
- GI50 [15]: > 100 µM (inactive)
- GI50 [16]: > 100 µM (inactive)
- GI50 [17]: > 100 µM (inactive)
- GI50 [18]: > 100 µM (inactive)
- GI50 [19]: > 100 µM (inactive)
- GI50 [20]: > 100 µM (inactive)
- GI50 [21]: > 100 µM (inactive)
- GI50 [22]: > 100 µM (inactive)
- GI50 [23]: > 100 µM (inactive)
- GI50 [24]: > 100 µM (inactive)
- GI50 [28]: > 100 µM (inactive)
- GI50 [29]: > 100 µM (inactive)
- GI50 [31]: > 100 µM (inactive)
- GI50 [32]: > 100 µM (inactive)
- GI50 [33]: > 100 µM (inactive)
- GI50 [35]: > 100 µM (inactive)
- GI50 [37]: > 100 µM (inactive)
- GI50 [38]: > 100 µM (inactive)
- GI50 [39]: > 100 µM (inactive)
- GI50 [40]: > 100 µM (inactive)
- GI50 [41]: > 100 µM (inactive)
- GI50 [42]: > 100 µM (inactive)
- GI50 [43]: > 100 µM (inactive)
- GI50 [57]: > 100 µM (inactive)
- GI50 [44]: > 100 µM (inactive)
- GI50 [45]: > 100 µM (inactive)
- GI50 [46]: > 100 µM (inactive)
- GI50 [47]: > 100 µM (inactive)
- GI50 [58]: > 100 µM (inactive)
- GI50 [48]: > 100 µM (inactive)
- GI50 [49]: > 100 µM (inactive)
- GI50 [50]: > 100 µM (inactive)
- GI50 [51]: > 100 µM
- GI50 [52]: > 100 µM (inactive)
- GI50 [53]: > 100 µM (inactive)
- GI50 [59]: > 100 µM (inactive)
- GI50 [54]: > 100 µM (inactive)

SMILES: C=CCN1C(=O)/C(=C/c2ccc(C)cc2)N=C1SC1OC(COC(C)=O)C(OC(C)=O)C(OC(C)=O)C1OC(C)=O (centres undefined)
- GI50 [55]: > 100 µM (inactive)
- GI50 [4]: > 100 µM (inactive)
- GI50 [6]: 34.1 µM (inactive)
- GI50 [9]: 39.4 µM (inactive) and 34.8 µM (inactive)
- GI50 [11]: 11.6 µM (inactive) and 8.43 µM (inactive)
- GI50 [13]: 14.4 µM (inactive)
- GI50 [15]: 53.2 µM (inactive) and > 82.8 µM (inactive)
- GI50 [16]: 59.4 µM (inactive)
- GI50 [19]: > 100 µM (inactive)
- GI50 [23]: > 100 µM (inactive)
- GI50 [24]: > 100 µM (inactive)
- GI50 [25]: > 100 µM (inactive)
- GI50 [26]: 33.9 µM (inactive) and > 45.3 µM (inactive)
- GI50 [28]: 39.2 µM (inactive)
- GI50 [29]: 28.7 µM (inactive) and 27.5 µM (inactive)
- GI50 [34]: > 76.4 µM (inactive)
- GI50 [39]: 60.1 µM (inactive)
- GI50 [43]: 51.8 µM (inactive)
- GI50 [45]: > 100 µM (inactive)
- GI50 [47]: 68.7 µM (inactive)
- GI50 [49]: 3.4 µM (inactive)
- GI50 [50]: 25.3 µM (inactive) and 23.3 µM (inactive)
- GI50 [53]: 7.83 µM (inactive)
